According to patent publication US20250304623A1, “PEPTIDES FOR INTRACELLULAR DELIVERY” (UNIVERSIDADE DE SANTIAGO DE COMPOSTELA, priority 2022, published 2025):
pIC50: −log10 of the molar value. Starred links: 1 amine or outer side, 2 acyl side, 3 side chain; linkers in the order of their positions; H or OH if unused. Residues, ends and D or L forms follow the SMILES beside them. Groups on a side chain read outwards from the residue. *: point of attachment. Glutaryl = O=C(CCCC(=O)[*:2])[*:1]; X1 = CCCC/C=C\CCCCCCCC=NN*; NHNH2 = NN*

Experiments:
[1] = MTS cell viability of transfected cells, A549; format: cell-based; conditions: human; A549 cells transfected with Cas9-RNP complexes; myristoleyl, palmitoleyl or petroselinyl aldehydes
Method: For Cas9-RNP delivery, the efficiency on GFP silencing was around 60-70% when complexing the protein with an amphiphile comprising 7.3(Leu-His) and myristoleyl, palmitoleyl or petroselinyl aldehydes. Cells transfected with the above-indicated complexes present a cell viability higher than 80%. Viability assays were performed employing the CellTiter 96© Aqueous Non-Radioactive Cell Proliferation Assay (MTS) and following the manufacturer's instructions. Briefly, 20 μL of the combined MTS/PMS solution were added into each well of the 96-well assay plate containing cells in culture medium (100 μL). The plate was incubated 4 hours at 37° C. and 5% CO2 in a humidified atmosphere. Then, absorbance (490 nm) was recorded in an INFINITE M1000 PRO (TECAN).

Hela cells = experiment: EGFP pDNA transfection, flow cytometry, HeLa; format: cell-based; conditions: HeLa seeded at 60,000, 120,000 and 240,000 cells/mL
Method: For cytometry-based assays, the delivery of pDNA encoding for the expression of eGFP gene (GFP) in HeLa and A549 cells was performed. Amphiphilic molecule stock solutions in DMSO were diluted with DMEM and freshly mixed with pDNA stock solutions in DMEM prior to transfection experiments, to afford several complexes at different amphiphile concentration (2.5-10 μM) while maintaining a constant final pDNA concentration of 2 ng/μL. The mixture was shaken for 30 min at room temperature before the addition to the cells. The cell medium was aspirated, and cells were washed twice with PBS. Finally, 50 μL of the complex's solution were added to the cells and incubated for 4 h. After the incubation, the medium was replaced by 100 μL of fresh DMEM supplemented with 10% FBS. 72 hours after transfection the DMEM was removed, and cells were cultured for 5 min with 100 μL of trypsin. Then, 100 μL of PBS (supplemented with 2% FBS and 1% EDTA 0.5M) were added. Finally, the GFP fluorescent measurement was performed in a flow cytometer and the percentage of GFP positive (i.e., transfected cells) were quantified. Amphiphile transfection efficiency was compared to control, non-treated cells and all experiments were done in triplicate.
7.3(Leu-His) peptide with D-amino acids was synthesized. This peptide would be more resistant to the degradation by proteases. The inventors studied the delivery of EGFP pDNA using amphiphiles comprising either enantiomer (either 7.3(Leu-His) peptide with D-amino acids or with L-amino acids) and myristoleyl aldehyde to compare their transfecting activity in HeLa cells. Number of EGFP expressing cells was measured by flow cytometry.
Experiments in cultured cells at different confluence levels were performed to check the effect of this parameter on the activity of amphiphile 7.3(Leu-His) M. As described above, transfection experiments are usually performed on cells seeded the day before at a cell concentration of 60,000 cell/mL (100 μL/well). In the current example, transfection experiments with EGFP pDNA are performed in HeLa cells two and four times more concentrated (120,000 and 240,000 cells/mL, respectively). […] However, for this experiment more volume of complex amphiphile/pDNA was needed as the cell concentration was increased (50, 100 and 200 μL of complexes were used for 60,000, 120,000 and 240,000 cells/mL, respectively).
Several structural modifications were performed on the peptide 7.3(Leu-His). The delivery of EGFP pDNA in HeLa cells using amphiphiles comprising these peptides and myristoleyl aldehyde was tested. The modifications consisted of the modification in the order of the amino acids, the replacement of 1 to 3 K* residues for O* residues and the addition of 1 or 2 R residues on the N-terminus. […]

mice = experiment: In vivo FLuc mRNA delivery, i.v. injection, predilution formulation, BLI; conditions: i.v. tail vein, organs after 24 h
Method: FIG. 10A In vivo mRNA transfection. Representative bioluminescence images of animals and extracted organs following i.v. (intravenous) injection of FLuc mRNA/amphiphile complexes (0, 2.5 and 5 μM of 7.3(Leu-His) M) at different times (1 h, 4 h, 7 h and 24 h). 1.3 μg FLuc mRNA were used in all conditions. FIG. 10B Quantification of the organs' bioluminescence
In the case of i.v. administration (tail vein), luciferase expression was evaluated over 24 h, starting at 1 h after the administration of mRNA complexes. After that time, the specimens were sacrificed, and each organ was analysed individually using BLI for quantification of the expression. In this case, preferred conditions involved the injection of 50 μL of complex solution in a suitable buffer, such as PBS, or phosphate buffer enriched with inorganic salts, comprising 2.5 μM 7.3(Leu-His) M and 1.3 μg/mouse FLuc mRNA.

Ai14 mice = experiment: In vivo gene editing by Cre mRNA delivery, tdTomato fluorescence; conditions: i.v.; 7 μg Cre mRNA; 1:1 and 5:1 mass ratio amphiphile:mRNA; 2 days
Method: In vivo gene editing enables localization and quantification of expression following Cre recombinase mRNA delivery in Ai14 mice, a reporter strain that expresses tdTomato fluorescence after Cre-mediated recombination.
The inventors evaluated the mRNA delivery efficiency of amphiphile by i.v. injections of an amphiphile-complexed Cre recombinase mRNA (CleanCap® Cre mRNA (5moU), TriLink, L-7211) in Ai14 mice. Amphiphilic molecule stock solutions were prepared in DMSO as described above. The solutions of mRNA/amphiphile complexes were freshly prepared prior to in vivo experiments. Amphiphile solutions in DMSO were mixed with mRNA solutions in a suitable buffer, such as PBS, or phosphate buffer enriched with inorganic salts (1:1 and 5:1 mass ratio, final amount of mRNA per mice=7 μg/mouse). The mixture was shaken for 30 min at room temperature before injection. For each mouse, 7 μg mRNA was complexed with 7.3(Leu-His) with myristoleyl aldehyde (7.3(Leu-His) M), and administered by i.v. injection in the tail vein in 100 μL of a suitable buffer, such as PBS, or phosphate buffer enriched with inorganic salts. As control, 7 μg of naked mRNA was injected in three mice. After 2 days, mice were sacrificed and were imaged to confirm tdTomato expression.

[2] = system: all the cell lines except for HepG2

Compound: CC(=O)N[C@@H](CCCNC(=N)N)C(=O)N[C@@H](CCCCNC(=O)CCCC(=O)NN)C(=O)N[C@@H](Cc1c[nH]cn1)C(=O)N[C@@H](CCCNC(=N)N)C(=O)N[C@@H](CCCCNC(=O)CCCC(=O)NN)C(=O)N[C@@H](CCCCNC(=O)CCCC(=O)NN)C(=O)N[C@@H](Cc1c[nH]cn1)C(N)=O [7.3(L-H), Ac-RK*HRK*K*H-NH2] (Ac-RK([Glutaryl-NHNH2])HRK([Glutaryl-NHNH2])K([Glutaryl-NHNH2])H-NH2)
- viability [1]: > 80%

Compound: CCCC/C=C\CCCCCCCC=NNC(=O)CCCC(=O)NCCCC[C@H](NC(=O)[C@H](CCCCNC(=O)CCCC(=O)NN=CCCCCCCC/C=C\CCCC)NC(=O)[C@H](CCCNC(=N)N)NC(=O)[C@H](Cc1c[nH]cn1)NC(=O)[C@H](CCCCNC(=O)CCCC(=O)NN=CCCCCCCC/C=C\CCCC)NC(=O)[C@H](CCCNC(=N)N)NC(C)=O)C(=O)N[C@@H](Cc1c[nH]cn1)C(N)=O [7.3(Leu-His) M] (Ac-RK([Glutaryl-X1])HRK([Glutaryl-X1])K([Glutaryl-X1])H-NH2)
- EGFP pDNA transfection at different cell confluence (Hela cells): performs equally well at all cell concentrations tested
- biodistribution of bioluminescence (mice): a preferred spleen biodistribution of the bioluminiscence was observed, followed by liver expression and, to a lesser extent, in the lungs
- tdTomato expression in organs (Ai14 mice): expression of tdTomato protein was observed preferably in spleen and lungs, being more intense when using 5:1 mass ratio amphiphile:mRNA
- pIC50 [2]: 4.62 to 4.89
- pIC50 (HepG2): ~4.22
